# US20060275847A1, “Method for assessing biofilms” (priority 2002, published 2006)
# Key:
# Format in all cases: cell-based, Escherichia coli
# [1] = system: tac promoter (GFP expression) in E. coli CL182; assay: GFP expression from the IPTG responsive tac promoter in adhered CL182; settings: without IPTG versus with IPTG (0.2 μM) in Luria broth
# Protocol: (§1) The strains were mixed and grown in the presence of selective antibiotics (tetracycline, ampicillin or chloramphenicol) and the effects were visualised using the IN Cell Analyzer.
# (§2) E. coli cultures were grown in batch culture at 37° C. for 16 hours under selective pressure. Cells were pelleted by centrifugation, washed and resuspended in cold PBS. OD600 mn was normalised (to 1) for both cultures and solutions were diluted ten fold in cold PBS. Cells (100 μl) were allowed to settle and adhere to the surface of a Packard microtitre plate (Packard #6005182) at 4° C. for 1 hour. Adhered E. coli were washed twice with PBS (100 μl). Luria broth (100 μl) with or without IPTG (0.2 μM), and ampicillin (100 μg/ml), tetracycline (10 μg/ml) and chloramphenicol (34 μg/ml) were added to adhered cells and incubated at 37° C. for 4 hours and 16 hours. Cells were washed twice with PBS and incubated for 10 minutes in Hoechst 33342 (0.1 μM in PBS). Cells were washed in PBS and imaged sequentially using the UV (365 nm) and blue (488 nm) laser lines to excite Hoechst 33342 and GFP respectively. […]
# (§3) The images were then analysed using the algorithms described in FIGS. 7 to 14. […] In addition, the overlap between green and blue fluorescent biofilm was calculated in 3D.
# [2] = system: XL1-blue and CL182 cells; assay: Differential 3D analysis of mixed adhered E. coli cultures grown with selective antibiotics; settings: for inhibition of biofilm development: summary statement referring to FIGS. 17 and 18
# Protocol: as §1
# E. coli cultures were grown in batch culture at 37° C. for 16 hours under selective pressure. Cells were pelleted by centrifugation, washed and resuspended in cold PBS. OD600 mn was normalised (to 1) for both cultures and solutions were diluted ten fold in cold PBS. Cells (100 μl) were allowed to settle and adhere to the surface of a Packard microtitre plate (Packard #6005182) at 4° C. for 1 hour. Adhered E. coli were washed twice with PBS (100 μl). Luria broth (100 μl) with or without IPTG (0.2 μM), and ampicillin (100 μg/ml), tetracycline (10 μg/ml) and chloramphenicol (34 μg/ml) were added to adhered cells and incubated at 37° C. for 4 hours and 16 hours. Cells were washed twice with PBS and incubated for 10 minutes in Hoechst 33342 (0.1 μM in PBS). Cells were washed in PBS and imaged sequentially using the UV (365 nm) and blue (488 nm) laser lines to excite Hoechst 33342 and GFP respectively. Emission light was captured using the 450BP65 and 565BP50 filters and collected as 12 bit images; 24 slices were acquired per condition with 1 μm spacing between them.
# The images were then analysed using the algorithms described in FIGS. 7 to 14. The voxel dimensions were established prior to conducting the experiment using sub-resolution and super-resolution beads. The analysis thus provides data on the amount of biofilm in both colour planes in three dimensions as described previously. In addition, the overlap between green and blue fluorescent biofilm was calculated in 3D.
# [3] = system: E. coli XL1-blue; assay: Differential 3D analysis of adhered E. coli cultures (confocal imaging, adhered culture volume); settings: Luria broth, chloramphenicol 34 μg/ml, 37° C., 4 hours and 16 hours
# Protocol: as §1, §2, §3
# [4] = system: E. coli CL182; assay: as above; settings: Luria broth, chloramphenicol 34 μg/ml, 37° C., 4 hours and 16 hours
# Protocol: as §1, §2, §3
Compound,reduction in the expression of GFP from the tac promoter by CL182 in the absence of IPTG [1],"differential inhibition of growth of XL1-blue and CL182 cells ([2]; ampicillin 100 μg/ml, tetracycline 10 μg/ml, 37° C., 4 hours and 16 hours, XL1-blue tetracycline resistant, CL182 ampicillin resistant)",inhibition of biofilm development [2],inhibition of growth of XL1-blue [3],inhibition of growth of CL182 [4]
CC(C)S[C@@H]1O[C@H](CO)[C@H](O)[C@H](O)[C@H]1O [IPTG],~25%,–,–,–,–
CC1(C)S[C@@H]2[C@H](NC(=O)[C@H](N)c3ccccc3)C(=O)N2[C@H]1C(=O)O [ampicillin],–,Differential inhibition,differentially inhibit,–,–
O=C(N[C@H](CO)[C@H](O)c1ccc([N+](=O)[O-])cc1)C(Cl)Cl [chloramphenicol],–,–,differentially inhibit,strongly inhibited,strongly inhibited
